Data: PubChem BioAssay (NCI)
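Five compound concentrations were applied to cells in 96-well plates for 48 hours; endpoints were derived by simple linear interpolation of the resulting dose-response curve. TGI: concentration producing complete growth inhibition.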

Columns and labels:
Experiment in all cases: NCI anticancer screen, dose series, 48 h
SR leukemia = system: SR leukemia
NCI-H522 lung = system: NCI-H522 lung
SN12C renal = system: SN12C renal
IGROV1 ovarian = system: IGROV1 ovarian
HT29 colon = system: HT29 colon
HCT-116 colon = system: HCT-116 colon
UACC-257 melanoma = system: UACC-257 melanoma
SK-MEL-28 melanoma = system: SK-MEL-28 melanoma
UACC-62 melanoma = system: UACC-62 melanoma
MDA-MB-435 = system: MDA-MB-435
HL-60(TB) leukemia = system: HL-60(TB) leukemia
SF-268 CNS = system: SF-268 CNS
SNB-19 CNS = system: SNB-19 CNS
MOLT-4 leukemia = system: MOLT-4 leukemia
NCI-H23 lung = system: NCI-H23 lung
ACHN renal = system: ACHN renal
HCC-2998 colon = system: HCC-2998 colon
U251 CNS = system: U251 CNS
LOX IMVI melanoma = system: LOX IMVI melanoma
A498 renal = system: A498 renal

| SMILES | TGI (SR leukemia) | TGI (NCI-H522 lung) | TGI (SN12C renal) | TGI (IGROV1 ovarian) | TGI (HT29 colon) | TGI (HCT-116 colon) | TGI (UACC-257 melanoma) | TGI (SK-MEL-28 melanoma) | TGI (UACC-62 melanoma) | TGI (MDA-MB-435) | TGI (HL-60(TB) leukemia) | TGI (SF-268 CNS) | TGI (SNB-19 CNS) | TGI (MOLT-4 leukemia) | TGI (NCI-H23 lung) | TGI (ACHN renal) | TGI (HCC-2998 colon) | TGI (U251 CNS) | TGI (LOX IMVI melanoma) | TGI (A498 renal) |
| --- | --- | --- | --- | --- | --- | --- | --- | --- | --- | --- | --- | --- | --- | --- | --- | --- | --- | --- | --- | --- |
| CN(C)c1ccc(N=Nc2cccc3ncccc23)cc1 | > 100 µM | > 73.8 µM | > 100 µM | > 100 µM | > 100 µM | > 100 µM | > 100 µM | > 100 µM | > 100 µM | > 79.8 µM | 35.9 µM | > 100 µM | > 100 µM | > 100 µM | > 100 µM | > 100 µM | > 100 µM | > 100 µM | > 100 µM | – |
| CC(C)(C)[Si](C)(C)OCC#C[C@@]1(O)CCCCC1CC(Sc1ccccc1)Sc1ccccc1 (some centres undefined) | 57.4 µM | 26.8 µM | 23.8 µM | 33.3 µM | 27 µM | 24 µM | 29.5 µM | 31.3 µM | 26.7 µM | 31.4 µM | 41.9 µM | – | 28.7 µM | 51 µM | 36.1 µM | 27.4 µM | 30.7 µM | 26.1 µM | 34.5 µM | 30.4 µM |
| Cc1cc(C)c(NS(=O)c2cccc(Cl)c2)c(C)c1 (centres undefined) | > 100 µM | – | > 100 µM | – | > 100 µM | > 100 µM | > 100 µM | > 100 µM | – | > 100 µM | > 100 µM | > 100 µM | > 100 µM | > 100 µM | > 100 µM | > 100 µM | – | > 100 µM | – | > 100 µM |
| COc1cc(-c2oc(C=Nc3ccccc3)c([N+](=O)[O-])c2-c2ccc(O)c(OC)c2)ccc1O | 9.8 µM | 30.2 µM | > 74.4 µM | 52.5 µM | > 55.9 µM | > 68.5 µM | > 73.6 µM | 68.7 µM | 47.2 µM | > 85.9 µM | 4.28 µM | 73.7 µM | 80.1 µM | > 84.7 µM | 33.9 µM | 32 µM | 30.5 µM | 66.1 µM | > 100 µM | – |
| Nc1cccc(C#Cc2cccc(C#Cc3cccc(N)n3)n2)n1 | > 100 µM | > 100 µM | > 100 µM | > 100 µM | – | > 100 µM | > 100 µM | – | > 100 µM | > 100 µM | – | > 100 µM | > 100 µM | > 100 µM | > 100 µM | > 100 µM | > 100 µM | > 100 µM | > 100 µM | > 100 µM |
| O=C1NC(=NC2CCCCC2)C2(CCN(CCCC3(c4ccc(F)cc4)OCCO3)CC2)N1c1ccccc1 | 31.4 µM | 34.1 µM | 37.5 µM | – | 33.1 µM | 24.7 µM | 28.7 µM | 35.6 µM | – | 42.5 µM | 28.7 µM | 42.2 µM | 35 µM | 36.7 µM | 34.3 µM | 28.4 µM | – | 30.2 µM | 39 µM | – |
| CN(C)/C=C/c1ccncc1 | > 100 µM | > 100 µM | > 100 µM | > 100 µM | > 100 µM | > 100 µM | > 100 µM | > 100 µM | > 100 µM | > 100 µM | – | > 100 µM | > 100 µM | > 100 µM | > 100 µM | > 100 µM | > 100 µM | > 100 µM | > 100 µM | > 100 µM |
